According to patent US6498251B1, “Tetrahydrobenzindole derivatives” (Meiji Seika Kaisha, Ltd., priority 1997, dated 2002):

Legend:
[1] = target: T1, 5-HT2 receptor (Rattus norvegicus, UniProt P14842); assay: Binding affinity for 5-HT2 receptor ([3H]ketanserin binding, rat cerebral cortex P2 fraction); conditions: [3H]ketanserin 1 nM, 37° C. 15 minutes, Ki calculated from IC50
T1 construct: Rat cerebral cortex was homogenized; from tissue; host or cells: rat cerebral cortex, P2 membrane fraction
Procedure: Test Example 2 Binding Affinity for 5-HT2 Rector
Rat cerebral cortex was homogenized in 10 volumes of 0.32 M sucrose solution and centrifuged for 10 minutes at 900×g, and the resulting supernatant fluid was again centrifuged for 20 minutes at 11,500×g. The thus obtained precipitate was re-suspended in 50 mM Tris-HCl (pH 7.4) buffer and centrifuged for 20 minutes at 39,900×g, and the thus obtained precipitate was used as P2 fraction.
The P2 fraction was incubated at 37° C. for 15 minutes in 50 mM Tris-HCl (pH 7.4) buffer containing 1 nM of [^3H]ketanserin and each of the compounds of the invention and then filtered after the reaction using Whatman GF/B glass filter. The radioactivity on the filter was measured using a liquid scintillation counter. Non-specific binding was determined by 10 μM ketanserin, and the specific binding was calculated based on the difference therefrom. The IC50 value was calculated from the inhibition curve of each compound, and the binding inhibition constant Ki was calculated from the value.

[2] = target: T2, human serotonin 5-HT7 receptor subtype (Homo sapiens, UniProt P34969); assay: Binding affinity for 5-HT7 receptor ([3H]-5CT binding test); conditions: for Ki: [3H]-5CT 1 nM, membrane fraction of cells expressing human 5-HT7, 37° C. 30 minutes, Ki calculated from IC50; for 5-HT2/5-HT7: ratio of Ki of 5-HT2 to Ki of 5-HT7 (selectivity)
T2 construct: expressed in transfected cells
Procedure: Test Example 1 Binding Affinity for 5-HT7 Rector
Cultured cells capable of expressing human serotonin 5-HT7 receptor subtype were harvested in an assay buffer solution (50 mM Tris-HCl containing 10 mM MgCl2and 0.5 mM EDTA, pH 7.4) and homogenized with a Potter tripe homogenizer, and then the membrane fraction was centrifuged for 20 minutes at 39,000 g and at 4° C. The thus obtained pellet was re-suspended in 1 ml, per cells per one culture dish of 10 cm in diameter, of the assay buffer solution and homogenized again.
The binding test was carried out using 1 nM in final concentration of [^3H]-5CT (carboxamide tryptamine) and from 1 to 1,000 nM of each substance to be tested (the compound (1) of the invention among Synthesis Examples), and adjusting the final assay volume to 300 μl by adding 100 μl of the membrane fraction suspension and then incubating the reaction system at 37° C. for 30 minutes. The incubation was terminated by quickly filtering on a GF/B filter, subsequently carrying out washing with 6 ml of cold 50 mM Tris-HCl (pH 7.4). The radioactivity was measured using a liquid scintillation counter. Non-specific binding was determined by 10 μM metergoline, and the specific binding was calculated based on the difference therefrom. The IC50 value was calculated from the inhibition curve of each compound, and the binding inhibition constant Ki was calculated from the value.

T1 sequence (P14842 whole entry): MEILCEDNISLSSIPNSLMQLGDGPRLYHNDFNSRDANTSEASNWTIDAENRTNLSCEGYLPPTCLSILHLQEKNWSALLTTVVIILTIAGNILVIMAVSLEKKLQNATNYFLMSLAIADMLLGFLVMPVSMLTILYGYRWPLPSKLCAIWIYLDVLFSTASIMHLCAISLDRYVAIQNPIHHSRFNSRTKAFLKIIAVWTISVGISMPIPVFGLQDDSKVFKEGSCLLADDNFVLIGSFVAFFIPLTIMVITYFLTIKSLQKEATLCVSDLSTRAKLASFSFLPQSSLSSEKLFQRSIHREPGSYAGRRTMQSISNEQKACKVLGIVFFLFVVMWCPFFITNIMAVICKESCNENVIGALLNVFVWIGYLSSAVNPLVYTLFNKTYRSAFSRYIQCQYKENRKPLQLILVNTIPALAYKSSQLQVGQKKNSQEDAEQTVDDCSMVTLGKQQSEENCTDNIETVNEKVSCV
T2 sequence (P34969 whole entry): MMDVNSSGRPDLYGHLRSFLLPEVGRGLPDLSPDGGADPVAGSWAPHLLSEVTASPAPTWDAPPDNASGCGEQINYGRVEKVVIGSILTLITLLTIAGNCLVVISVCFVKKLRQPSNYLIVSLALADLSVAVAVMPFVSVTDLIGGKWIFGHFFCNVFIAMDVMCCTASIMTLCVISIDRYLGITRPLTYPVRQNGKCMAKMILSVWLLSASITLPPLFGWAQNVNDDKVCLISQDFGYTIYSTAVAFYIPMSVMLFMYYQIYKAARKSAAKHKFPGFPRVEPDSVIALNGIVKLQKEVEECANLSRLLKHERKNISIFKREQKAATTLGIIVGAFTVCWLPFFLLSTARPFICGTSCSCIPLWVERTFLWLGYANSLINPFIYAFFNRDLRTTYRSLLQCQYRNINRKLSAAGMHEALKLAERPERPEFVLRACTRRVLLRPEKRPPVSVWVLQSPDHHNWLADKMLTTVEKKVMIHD

Compound	Ki [1]	Ki [2]	5-HT2/5-HT7 [2]
O=C1Nc2cccc3c2C1(CCCCN1CCc2c([nH]c4ccccc24)C1)CCC3 (stereo not drawn) [Compd. of Syn. Ex. 1a, 2a-[4-(2,3,4,9-Tetrahydro-1H-pyrido[3,4-b]indol-2-yl)-butyl]-2a,3,4,5-tetrahydro-1H-benz[cd]indol-2-one]	227 nM	7 nM	33
O=C1Nc2cccc3c2C1(CCCCN1CCN2c4ccccc4OCC2C1)CCC3 (stereo not drawn) [Compd. of Syn. Ex. 1b, 2a-[4-(1,2,3,4,4a,5-Hexahydropyrazino[2,1-c]-1,4-benzoxazin-3-yl)-butyl]-2a,3,4,5-tetrahydro-1H-benz[cd]indol-2-one]	151 nM	9 nM	17
CC(c1ccccc1)N1CCN(CCCCC23CCCc4cccc(c42)NC3=O)CC1 (stereo not drawn) [Compd. of Syn. Ex. 2e, 2a-(4-(4-(1-Phenyl-ethyl)-piperazin-1-yl)butyl)-2a,3,4,5-tetrahydro-1H-benz[cd]indol-2-one]	456 nM	30 nM	15
O=C1Nc2cccc3c2C1(CCCCN1CCN2c4ccccc4[S+]([O-])CC2C1)CCC3 (stereo not drawn) [Compd. of Syn. Ex. 10b, 2a-[4-(1,2,3,4,4a,5-Hexahydro-6-oxo-6-λ^4-pyrazino[2,1-c]-1,4-benzthiazin-3-yl)-butyl]-2a,3,4,5-tetrahydro-1H-benz[cd]indol-2-one]	> 1000 nM	7 nM	>143
O=C1Nc2cccc3c2C1(CCCCN1CCN(C2CCCc4ccccc42)CC1)CCC3 (stereo not drawn) [Compd. of Syn. Ex. 10d, 2a-(4-(4-(1,2,3,4-Tetrahydronaphthalen-1-yl)-piperazin-1-yl)butyl)-2a,3,4,5-tetrahydro-1H-benz[cd]indol-2-one]	> 1000 nM	9.8 nM	>100
Cl.O=C1Nc2ccccc2N2CCN(CCCCC34CCCc5cccc(c53)NC4=O)CC12 (stereo not drawn) [Compd. of Syn. Ex. 13b, 2a-[4-(2,3,4,4a-Tetrahydro-1H-pyrazino[1,2-a]quinoxalin-5(6H)-one-3-yl)-butyl]-2a,3,4,5-tetrahydro-1H-benz[cd]indol-2-one Hydrochloride]	385 nM	8 nM	48
CN1C(=O)C2(CCCCN3CCc4ccccc4C3)CCCc3cccc1c32 (stereo not drawn) [Compd. of Syn. Ex. 14c, 2a-(4-(1,2,3,4-Tetrahydroisoquinolin-2-yl)butyl)-1-methyl-2a,3,4,5-tetrahydro-1H-benz[cd]indol-2-one]	> 1000 nM	1.9 nM	>530
COC(=O)n1c2c(c3ccccc31)CCN(CCCCC13CCCc4cccc(c41)NC3=O)C2 (stereo not drawn) [Compd. of Syn. Ex. 17a, 2a-[4-(9-Methoxycarbonyl-2,3,4,9-tetrahydro-1H-pyrido[3,4-b]indol-2-yl)-butyl]-2a,3,4,5-tetrahydro-1H-benz[cd]indol-2-one]	807 nM	9 nM	90
O=C1Nc2cccc3c2C1(CCCCN1CCc2sccc2C1)CCC3 (stereo not drawn) [Compd. of Syn. Ex. 17c, 2a-(4-(4,5,6,7-Tetrahydro-thieno[3,2-c]pyridin-5-yl)butyl)-2a,3,4,5-tetrahydro-1H-benz[cd]indol-2-one]	> 1000 nM	0.9 nM	>1100
COCn1c2c(c3ccccc31)CCN(CCCCC13CCCc4cccc(c41)NC3=O)C2 (stereo not drawn) [Compd. of Syn. Ex. 21a, 2a-[4-(9-Methoxymethyl-2,3,4,9-tetrahydro-1H-pyrido[3,4-b]indol-2-yl)-butyl]-2a,3,4,5-tetrahydro-1H-benz[cd]indol-2-one]	524 nM	13 nM	40
O=C1Nc2cccc3c2C1(CCCCN1CCN(C2CCCc4cnccc42)CC1)CCC3 (stereo not drawn) [Compd. of Syn. Ex. 37d, 2a-(4-(4-(5,6,7,8-Tetrahydroisoquinolin-5-yl)-piperazin-1-yl)butyl)-2a,3,4,5-tetrahydro-1H-benz[d]indol-2-one]	882 nM	8.8 nM	100
